Source: paper PMC11073449 (Science (New York, N.Y.), 2023)
Changes are numbered by the printed parent chain.

Key:
[1] = target: T1, Aster-A (Mus musculus, UniProt Q8VEF1, L400A/F405I); test: CD thermal stabilization; assay type: binding
T1 sequence (Q8VEF1 334-562 L400A/F405I): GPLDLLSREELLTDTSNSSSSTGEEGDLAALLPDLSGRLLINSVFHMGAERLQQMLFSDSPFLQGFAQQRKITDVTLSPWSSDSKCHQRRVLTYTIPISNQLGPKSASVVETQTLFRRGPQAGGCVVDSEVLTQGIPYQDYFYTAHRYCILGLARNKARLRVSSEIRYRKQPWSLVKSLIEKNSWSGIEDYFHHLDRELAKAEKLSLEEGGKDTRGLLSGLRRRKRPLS

[2] = target: T2, Aster-A (Mus musculus, UniProt Q8VEF1, L400A); test: CD thermal stabilization; assay type: binding
T2 sequence (Q8VEF1 334-562 L400A): T1 sequence (Q8VEF1 334-562 L400A/F405I) with I72F

With `O=C1[C@H](CC[C@H](O)c2ccc(F)cc2)[C@@H](c2ccc(O)cc2)N1c1ccc(F)cc1` [EZ, ezetimibe] the CD thermal stabilization [1] was “The Aster-A mutant L400A_F405I, as well as the single mutant L400A, reduced Aster-A thermal stability” and the CD thermal stabilization [2] was “but the stability was increased by EZ”.
